The source of these data is US20210100245A1, “SYNERGISTIC FORMULATIONS FOR CONTROL AND REPELLENCY OF BITING ARTHROPODS” (BEDOUKIAN RESEARCH, INC., priority 2019, published 2021).

Molecules are shown by their SMILES.

The experiment concerns Adult female Aedes aegypti. Put plainly: Membrane feeder repellency test: mosquitoes probing treated collagen membranes over blood-filled wells. It counts as in vivo. Particulars: for Test results (quantity not named; percentage from mosquito probing counts): 6.25 μl on collagen membrane, probes counted every 2 min for 20 min; for Test results, percentage relative to 0.3 wt % DEET in the same test: total repellent 0.30%, relative to 0.3 wt % DEET (=100%). How it is done: Adult female Aedes aegypti were obtained from the i2LResearch USA, Inc. colony. Two hundred fifty (250) mosquitoes were used per replicate (seven replicates). Mosquitoes were at least 6 days old and had been deprived of sucrose solution for at least 18 hours prior to testing.
An exposure container was used to present the mosquitoes with a choice of blood-filled wells that were covered with collagen membranes (3 cm in diameter). The collagen membranes were treated by pipetting 6.25 μI of the test treatment onto the appropriate membrane and spreading it evenly with the tip of the pipette.
Exposure container. A 30.5 cm×30.5 cm×30.5 cm container (rigid plastic frame and a sleeved entry on one side and a sliding trap door on the bottom). The container was supported by four (4 cm high) legs.
Membrane feeder. Five wells (3 cm in diameter×8 mm in depth) in line on a hollow plastic block (6 cm wide×22 cm long×3 cm deep). The plastic block fit into the bottom of the exposure container. Hoses mounted on either end of the membrane feeder carried warm water that was pumped from a water bath. The sliding plastic trap door in the bottom of the exposure container covered and uncovered the wells in the membrane feeder, allowing mosquitoes to access the blood-filled wells that were covered with treated collagen membranes.
Study set-up. The membrane feeder was connected to a heated water bath, and warm water passed through the feeder via a circulating pump so that the wells were warmed to 96-100° F. Seventy-two (72) mg of ATP (disodium salt) were added to 26 ml of bovine blood. Sodium citrate was also added to the blood during collection to prevent clotting. The blood was poured into the wells until it completely filled each well (meniscus slightly above the level of the well).
Circular pieces (3 cm in diameter) of collagen membrane were placed over each of the wells. Care was taken to eliminate all air bubbles from between the membrane and the surface of the blood. Once wells were prepared, the blood was allowed to warm until the membrane temperature reached […]. Temperature was confirmed using a surface thermometer.
Treatment and exposure to mosquitoes. Once the collagen membranes were placed over the blood-filled wells, they were treated as described above. The membranes were allowed to dry for five minutes. Then the exposure container was placed on the membrane feeder. The trap door in the floor of the container was slid back, exposing the mosquitoes to the membranes. The number of mosquitoes probing the membrane covering each well was recorded every two minutes for twenty minutes. If a minimum of 20 total control probes were not achieved in a replicate, the replicate was repeated.
The above procedures were repeated until seven acceptable replicates were completed. […]

Take `CC1CCC(C(C)C)C(OCC(O)CO)C1` (stereo not shown) [Coolact 10, menthoxypropane-1,2-diol]: the “Test results (quantity not named; percentage from mosquito probing counts)” value is, setting by setting: (concentration 0.15%) 45.4%; (concentration 0.30%) 41.5%. On to `CCN(CC)C(=O)c1cccc(C)c1` [DEET, N,N-diethyl-m-toluamide, reference compound], for which the “Test results, percentage relative to 0.3 wt % DEET in the same test” value was 100.0%. With `CCNC(=O)C1CC(C)CCC1C(C)C` (stereo not shown) [WS3, N-ethyl-p-menthane-3-carboxamide], the “Test results, percentage relative to 0.3 wt % DEET in the same test” value was determined as 130.0%.
